Source: the CheMixHub ionic liquid set
± gives the uncertainty stated by the source.

Assay: xn = mol fraction of the nth substance listed

`C[C@H](N)C(=O)O` + CCCCCCCCCCCCCCCC[n+]1ccccc1.[Cl-] + O gave an electrical conductivity (308.15 K, 101 kPa, x1 = 2.018e-05, x2 = 0) of 0.00076 ± 8e-06 S/m, an electrical conductivity (308.15 K, 101 kPa, x1 = 2.252e-05, x2 = 0) of 5.6e-05 ± 1e-06 S/m and an electrical conductivity (308.15 K, 101 kPa, x1 = 0.0009272, x2 = 0) of 7.5e-05 ± 1e-06 S/m. It also gave an electrical conductivity (308.15 K, 101 kPa, x1 = 0.001838, x2 = 0) of 0.000251 ± 3e-06 S/m.
With `CCCC[n+]1ccn(C)c1.F[B-](F)(F)F` + OCCO the electrical conductivity (298.15 K, 100 kPa, x1 = 1) was 0.243 ± 0.002 S/m and the viscosity (298.15 K, 100 kPa, x1 = 1) was 104.7 ± 2.6 mPa·s.
For `CCCC[n+]1ccn(C)c1.F[B-](F)(F)F` + NCCO + O, the viscosity (293.15 K, 101 kPa, x1 = 0.0337, x2 = 0.2024) was 7 ± 2.1 mPa·s, the viscosity (293.15 K, 101 kPa, x1 = 0.0792, x2 = 0.1188) was 6.1 ± 1.8 mPa·s and the viscosity (298.15 K, 101 kPa, x1 = 0.0337, x2 = 0.2024) was 5.5 ± 1.6 mPa·s. The viscosity (298.15 K, 101 kPa, x1 = 0.0792, x2 = 0.1188) was 4.7 ± 1.4 mPa·s, the viscosity (303.15 K, 101 kPa, x1 = 0.0337, x2 = 0.2024) was 4.5 ± 1.4 mPa·s and the viscosity (303.15 K, 101 kPa, x1 = 0.0792, x2 = 0.1188) was 4 ± 1.2 mPa·s. It also gave a viscosity (303.15 K, 101 kPa, x1 = 0.0977, x2 = 0.2442) of 7.3 ± 2.2 mPa·s, a viscosity (308.15 K, 101 kPa, x1 = 0.0337, x2 = 0.2024) of 3.8 ± 1.1 mPa·s and a viscosity (308.15 K, 101 kPa, x1 = 0.0792, x2 = 0.1188) of 3.4 ± 1 mPa·s. It also gave a viscosity (308.15 K, 101 kPa, x1 = 0.0977, x2 = 0.2442) of 6 ± 1.8 mPa·s, a viscosity (308.15 K, 101 kPa, x1 = 0.1701, x2 = 0.3402) of 9 ± 2.7 mPa·s and a viscosity (313.15 K, 101 kPa, x1 = 0.0977, x2 = 0.2442) of 5.1 ± 1.5 mPa·s. It also gave a viscosity (313.15 K, 101 kPa, x1 = 0.1701, x2 = 0.3402) of 7.6 ± 2.3 mPa·s, a viscosity (318.15 K, 101 kPa, x1 = 0.0977, x2 = 0.2442) of 4.3 ± 1.3 mPa·s and a viscosity (318.15 K, 101 kPa, x1 = 0.1701, x2 = 0.3402) of 6.5 ± 1.9 mPa·s. It also gave a viscosity (323.15 K, 101 kPa, x1 = 0.0977, x2 = 0.2442) of 3.7 ± 1.1 mPa·s, a viscosity (323.15 K, 101 kPa, x1 = 0.1701, x2 = 0.3402) of 5.5 ± 1.6 mPa·s and a viscosity (328.15 K, 101 kPa, x1 = 0.1701, x2 = 0.3402) of 4.7 ± 1.4 mPa·s. The viscosity (333.15 K, 101 kPa, x1 = 0.1701, x2 = 0.3402) was 4.1 ± 1.3 mPa·s.
`O` + CCCCCCCCCCCCCCCC[n+]1ccccc1.O=C([O-])c1ccccc1O showed an electrical conductivity (293.15 K, 101 kPa, x2 = 0) of 0.000135 ± 8.1e-06 S/m, an electrical conductivity (298.15 K, 101 kPa, x2 = 0) of 0.000158 ± 9.5e-06 S/m and an electrical conductivity (303.15 K, 101 kPa, x2 = 0) of 0.000178 ± 1.1e-05 S/m. For the same molecule, the electrical conductivity (308.15 K, 101 kPa, x2 = 0) was 0.000197 ± 1.2e-05 S/m and the electrical conductivity (313.15 K, 101 kPa, x2 = 0) was 0.000246 ± 1.5e-05 S/m.
